For 5 compounds, IC50 results are on record in patent US20080188473A1, “Indoles Useful in the Treatment of Inflammation” (priority 2004, published 2008).

The assay concerns the target T1, human mPGES-1 (Homo sapiens, UniProt O14684).
T1 construct: made in house; host or cells: E. coli (membrane fraction)
T1 sequence (O14684 1-152): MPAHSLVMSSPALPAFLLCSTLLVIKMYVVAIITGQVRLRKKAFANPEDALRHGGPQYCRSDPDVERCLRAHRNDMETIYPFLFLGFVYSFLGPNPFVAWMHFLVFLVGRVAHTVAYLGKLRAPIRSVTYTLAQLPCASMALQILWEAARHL
Description: mPGES-1 inhibition assay (conversion of PGH2 to PGE2, HPLC analysis). Type of assay: biochemical. The note with it: human mPGES-1 expressed in E. coli, membrane fraction; 25 min preincubation with inhibitor, PGH2 substrate 60 seconds, room temperature; read-out: concentration at which 50% inhibition of mPGES-1 was observed. The method, then: In the assay human mPGES-1 catalyses the reaction where the substrate PGH2 is converted to PGE2. mPGES-1 is expressed in E. coli and the membrane fraction is dissolved in 20 mM NaPi-buffer pH 8.0 and stored at −80° C. […] The stop solution consists of H2O/MeCN (7/3), containing FeCl2 (25 mM) and HCl (0.15 M). The assay is performed at room temperature in 96-well plates.
The following is added chronologically to each well: • 1. 100 μL human in PGES-1 in KPi-buffer with glutathione. Total protein concentration: 0.02 mg/mL. • 2. 1 μL inhibitor in DMSO. Incubation of the plate at room temperature for 25 minutes. • 3. 4 μL of a 0.25 mM PGH2 solution. Incubation of the plate at room temperature for 60 seconds. • 4. 100 μL stop solution. • 180 μL per sample is analyzed with HPLC.

Consider `CC(=O)Nc1c(C(=O)O)n(-c2ccc(OC(C)C)cc2)c2ccc(-c3ccc(OC(C)C)cc3)cc12` [Example 1, 3-Acetamido-1,5-bis(4-isopropoxyphenyl)-indole-2-carboxylic acid], for which the IC50 was 3.1 µM.

`CC(C)Oc1ccc(-n2c(C(=O)O)c(NC(=O)c3cccnc3)c3cc(-c4ccc(C(F)(F)F)cn4)ccc32)cc1` [Example 13, 1-(4-Isopropoxyphenyl)-3-nicotinamide-5-(5-trifluoromethylpyridin-2-yl)-1H-indole-2-carboxylic acid]: the IC50 came to 0.19 µM.

For the compound `CC(=O)N(C)c1c(C(=O)O)n(-c2ccc(OC(C)C)cc2)c2ccc(-c3ccc(C(F)(F)F)cn3)cc12` [Example 12, 3-(Acetylmethylamino)-1-(4-isopropoxyphenyl)-5-(5-trifluoromethyl-pyridin-2-yl)-1H-indole-2-carboxylic acid], the IC50 is 5.3 µM. Next, `CC(C)Oc1ccc(-c2ccc3c(c2)c(NS(C)(=O)=O)c(C(=O)O)n3-c2ccc(OC(C)C)cc2)cc1` [Example 3, 1,5-Bis(4-isopropoxyphenyl)-3-(methylsulfonamido)indole-2-carboxylic acid]: 1.7 µM. `CC(C)Oc1ccc(-n2c(C(=O)O)c(N3CCOCC3)c3cc(-c4ccc(C(F)(F)F)cc4)ccc32)cc1` [Example 7, 1-(4-Isopropoxyphenyl)-3-(4-morpholino)-5-(4-(trifluoromethyl)phenyl)-indole-2-carboxylic acid]: the IC50 amounted to 0.73 µM.
